Earlier results in US7122195B2, “Mutant mycobacteria for use in therapy” (priority 2000, dated 2006).

Tested on: M. tuberculosis complex

For `Cc1ncc([N+](=O)[O-])n1CCO` [Metronidazole], the “Activity on anaerobic grown M. tuberculosis complex” value is given as “acts exclusively on anaerobic grown” and the “Effect on growth of aerobic grown cultures” value is given as “does not affect the growth”.
